# Where two headings read alike, the source gives them in different places.
# Tests used:
# rat liver = settings: in vivo; cited from earlier work
# mastalgia [1] = experiment: Example 4: efficacy of percutaneous 4-hydroxy tamoxifen in mastalgia; type: in vivo, human
# Text: All patients had normal mammograms within the previous 6 months, and utilized contraception throughout the study and 3 months preceding it.
# The primary criteria considered were the number of painful days per month and the mean pain severity during the last 10 days of the menstrual cycle. Assessments of pain were made by patient self-evaluation. Secondary criteria included clinical assessment by the physician of breast tenderness, nodularity, breast size, local warmth, and breast circumference. Any side effects were recorded.
# Daily self-evaluation of pain continued as in the earlier stage.
# Skin penetration = settings: without assistance from penetration enhancers
# [2] = Example 1: percutaneous [3H]-4-hydroxy tamoxifen delivery in breast cancer patients (tissue, blood, urine radioactivity)
# Procedure: The patients received [^3H]-labeled drug applied directly on the affected breasts at specified intervals ranging from 12 hours to 7 days before surgery to excise diseased tissue. Breast tissue from three regions: the tumor, tissue immediately surrounding the tumor, and normal tissue, was excised and immediately frozen in liquid nitrogen. Additionally, plasma and urine samples were obtained at scheduled intervals and frozen until analysis.
# [3] = Example 3: pharmacokinetics of 4-hydroxy tamoxifen gel in healthy premenopausal women; type: in vivo, human
# Procedure: Each participant applied the gel daily for the duration of two menstrual cycles.
# At the end of a menstrual cycle, each patient received a single dose, after which serial blood samples were collected at 0, 0.5, 1, 1.5, 2, 3, 4, 6, 12, 18, 24, 36, 48, and 72 hours.
# On the first day of the following menstruation, treatment, which consisted of daily application of the gel over two menstrual cycles, began. Blood samples were collected 24 hours following the morning application of gel on days 7, 20 and 25 of the first and second cycles. On the last day of administration, day 25 of the second menstrual cycle, serial blood samples were collected prior to application and at 0.5, 1, 1.5, 2, 3, 4, 6, 12, 18, 24, 36, 48, and 72 hours after application of the gel.
# mastalgia [4] = settings: cited from earlier work; for side effects: cyclical mastalgia treatment, nausea, vomiting, dizziness, headache, acne, sweating, amenorrhea, weight gain
smiles,measurement,setting,value
"CC/C(=C(\c1ccc(O)cc1)c1ccc(OCCN(C)C)cc1)c1ccccc1 [4-hydroxy tamoxifen, 1-[4-(2-N-dimethylaminoethoxy)phenyl]-1-(4-hydroxyphenyl)-2-phenylbut-1-(Z)-ene]",rat liver carcinogenicity,rat liver,not
same,reduction of mean number of days with pain,mastalgia [1]; 1.5 mg/day,more than 50%
same,reduction of mean pain intensity,mastalgia [1]; 1.5 mg/day,more than 50%
same,Mean Number of Days of Pain Level Greater than 20,"mastalgia [1]; 1 dose/breast, 0.5 mg/day, placebo 8.1 +/− 4.2",9.3 ± 5.2 days
same,Mean Pain Intensity During the Last 10 Days of the Menstrual Cycle,"mastalgia [1]; 1 dose/breast, 0.5 mg/day, placebo 34 +/− 25",38 +/− 25 /100
same,Mean Number of Days of Pain Level Greater than 20,"mastalgia [1]; 2 doses/breast, 1.0 mg/day",8.2 ± 5.5 days
same,Mean Pain Intensity During the Last 10 Days of the Menstrual Cycle,"mastalgia [1]; 2 doses/breast, 1.0 mg/day",29 +/− 23 /100
same,Mean Number of Days of Pain Level Greater than 20,"mastalgia [1]; 3 doses/breast, 1.5 mg/day",3.6 ± 5.2 days
same,Mean Pain Intensity During the Last 10 Days of the Menstrual Cycle,"mastalgia [1]; 3 doses/breast, 1.5 mg/day",15 +/− 19 /100
same,Mean Number of Days of Pain Level Greater than 20,"mastalgia [1]; 4 doses/breast, 2.0 mg/day",4.7 ± 4.4 days
same,Mean Pain Intensity During the Last 10 Days of the Menstrual Cycle,"mastalgia [1]; 4 doses/breast, 2.0 mg/day",17 +/− 19 /100
same,skin penetration,Skin penetration,poorly penetrates the skin
same,peak urinary elimination compared to percutaneous tamoxifen,[2]; percutaneous administration,later time
same,metabolism in cytosolic and nuclear fractions of breast tissue,[2]; percutaneous application,remained unmetabolized except for limited isomerization from the trans to the cis form
same,plasma concentrations after the last gel application,[3]; 72 hours after the last gel application,remained detectable
same,"Plasma concentration of 4-hydroxy tamoxifen, Mean ± SD (Range)","[3]; +8 days after last application, 0.5 mg/day, gel 20 mg/100 g",<LOQ
same,"Plasma concentration of 4-hydroxy tamoxifen, Mean ± SD (Range)","[3]; +8 days after last application, 1 mg/day, gel 57 mg/100 g",(0-14.8) pg/mL
same,"Plasma concentration of 4-hydroxy tamoxifen, Mean ± SD (Range)","[3]; +12 days after last application, 0.5 mg/day, gel 20 mg/100 g",≤ 9.09 pg/mL
same,"Plasma concentration of 4-hydroxy tamoxifen, Mean ± SD (Range)","[3]; +12 days after last application, 2 mg/day, gel 57 mg/100 g",(0-30.4) pg/mL
same,"Plasma concentration of 4-hydroxy tamoxifen, Mean ± SD (Range)","[3]; +20 days after last application, 0.5 mg/day, gel 20 mg/100 g",0 pg/mL
same,"Plasma concentration of 4-hydroxy tamoxifen, Mean ± SD (Range)","[3]; +20 days after last application, 1 mg/day, gel 20 mg/100 g",<LOQ
same,"Plasma concentration of 4-hydroxy tamoxifen, Mean ± SD (Range)","[3]; First cycle, Day 1, 0 hr, 0.5 mg/day, gel 20 mg/100 g",(0-17.2) pg/mL
same,"Plasma concentration of 4-hydroxy tamoxifen, Mean ± SD (Range)","[3]; First cycle, Day 1, 0 hr, 1 mg/day, gel 20 mg/100 g",(0-13.9) pg/mL
same,"Plasma concentration of 4-hydroxy tamoxifen, Mean ± SD (Range)","[3]; First cycle, Day 1, 0 hr, 1 mg/day, gel 57 mg/100 g",(0-9.5) pg/mL
same,"Plasma concentration of 4-hydroxy tamoxifen, Mean ± SD (Range)","[3]; First cycle, Day 1, 0 hr, 2 mg/day, gel 57 mg/100 g",(0-0) pg/mL
same,plasma concentrations after a single dose,"[3]; single 0.5 mg dose, gel",did not produce detectable plasma concentrations
C#C[C@]1(O)CC[C@H]2[C@@H]3CCC4=Cc5oncc5C[C@]4(C)[C@H]3CC[C@@]21C [danazol],side effects,mastalgia [4],significant unwanted side effects
same,efficacy at relieving cyclical mastalgia,"mastalgia [4]; human, in vivo",some efficacy
"CC/C(=C(\c1ccccc1)c1ccc(OCCN(C)C)cc1)c1ccccc1 [[^3H]-tamoxifen, reference compound]",plateau of radioactivity in blood,[2]; percutaneous application,2 days
CCC(=C(c1ccc(O)cc1)c1ccc(O)cc1)c1ccccc1 [Bisphenol],% Metabolites in Breast Tissue,[2]; 12 hr after percutaneous trans-[3H]-4-hydroxy tamoxifen to the affected breast,1%
same,share of radioactivity in blood,[2]; 24 hours after percutaneous administration of [3H]-4-hydroxy tamoxifen,11%
same,% Metabolites in Breast Tissue,[2]; 24 hr after percutaneous trans-[3H]-4-hydroxy tamoxifen to the affected breast,2%
same,% Metabolites in Breast Tissue,[2]; 36 hr after percutaneous trans-[3H]-4-hydroxy tamoxifen to the affected breast,3%
same,% Metabolites in Breast Tissue,[2]; Day 4 after percutaneous trans-[3H]-4-hydroxy tamoxifen to the affected breast,8%
same,% Metabolites in Breast Tissue,[2]; Day 7 after percutaneous trans-[3H]-4-hydroxy tamoxifen to the affected breast,8%
CC(C)C[C@H]1C(=O)N2CCC[C@H]2[C@]2(O)O[C@](NC(=O)[C@@H]3C=C4c5cccc6[nH]c(Br)c(c56)C[C@H]4N(C)C3)(C(C)C)C(=O)N12 [bromocriptine],side effects,mastalgia [4],significant unwanted side effects
CC/C(=C(\c1ccccc1)c1ccc(OCCN(C)C)cc1)c1ccccc1 [tamoxifen],side effects reported by mastalgia patients,mastalgia [4]; oral tamoxifen,"hot flashes, vaginal discharge, depression, amenorrhea, and nausea"
same,patients with reduced pain,"mastalgia [4]; orally administered, patients with moderate to severe mastalgia",71-90%
same,effective at reducing pain,mastalgia [4]; patients with cyclical mastalgia,94%
same,effective at reducing pain,mastalgia [4]; patients with non-cyclical mastalgia,56%
same,retention in the breast,[2]; percutaneous application of [3H]-labeled drug to the affected breast,shorter and far weaker

# Source: patent US7786172B2 (priority 2002, dated 2010)
